Laboratory results reported in US20250282764A1, “IMIDAZOLE HETEROCYCLE BASED COMPOUNDS AND METHODS OF TREATING CANCER” (King Abdulaziz University, priority 2024, published 2025).
Read-outs that look alike come from different tables or passages of the source.

Assays:
[1] = system: DLD1; assay: CellTiter-Blue cell viability assay, DLD1; assay type: cell-based, human; conditions: 48 h, 50% cell viability vs untreated, mean of triplicates
Experimental: (§1) Cell culture of colorectal carcinoma cell lines was performed as follows. DLD-1, HCT116, and HT-29 cells were purchased from CLS Cell Line Service GmbH (Eppelheim, Germany) and cultured in Dulbecco's Modified Eagle Medium (DMEM) high glucose, GlutaMAX™ Supplement, pyruvate (Thermo Fisher Scientific, Paisley, UK) supplemented with 10% fetal bovine serum (FBS; Thermo Fisher Scientific), 200 U/mL penicillin, and 200 μg/ml streptomycin (Thermo Fisher Scientific), at 37° C. with 5% CO2 in a humidified incubator.
(§2) The CellTiter®-Blue Cell Viability assay was acquired from Promega Corporation (Madison, WI, USA). Cell viability assay was performed as follows: DLD-1 (4×10^3/well), HCT116 (4×10^3/well), and HT-29 (7×10^3/well) were incubated with a concentration gradient of compound (Id) ranging from 0.01 to 20 μM, in 96-well plates for 48 h at 37° C. Subsequently, 20 μl CellTiter®-Blue Cell Viability reagent was added to each well and incubated for an additional 2 h for the development of fluorescence. The fluorescence emission was measured at 590 nm using a SpectraMax® i3× Multi-Mode microplate reader (Molecular Devices, LLC, San Jose, CA, USA) and plotted against drug concentrations to determine the mean inhibitory concentration of compound (Id) producing 50% decrease in cell viability (IC50). Experiments were performed in triplicates.

[2] = system: HT29; assay: CellTiter-Blue cell viability assay, HT29; assay type: cell-based, human; conditions: 50% cell viability vs untreated, mean of triplicates
Experimental: as §1, §2

[3] = system: K562; assay: CellTiter-Blue cell viability assay, K562; assay type: cell-based, human; conditions: 48 h, mean of triplicates
Experimental: (§3) Cell culture of leukemia cell lines model was performed as follows. HL60, K562, and NB4 cell lines were purchased from CLS Cell Line Service GmbH (Eppelheim, Germany). MV4-11 cell line was purchased from American Type Culture Collection (ATCC; Virginia, USA). KG1α also referred to as KG1a was a gift from Prof. Ghulam Mufti (King College London, UK). Kasumi-1 cell line was purchased from Nawah Scientific (Cairo, Egypt). All cell lines were cultured in Roswell Park Memorial Institute-1640 (RPMI-1640) culture medium supplemented with 10% fetal bovine serum (FBS) (Thermo Fisher Scientific) and 0.1% ciprofloxacin (10 μg/ml; Cipla Limited; Mumbai, India). Cells were maintained in a humidified incubator at 37° C. with 5% CO2.
(§4) Cell viability was determined using the CellTiter-Blue® Cell Viability Assay kit (Promega, Madison, WI, USA). Approximately […] were plated in 96 well plate in the presence of increasing drug concentration in triplicate and incubated for 48 h at 37° C. in a humidified incubator. After the incubation period, 20 μL of the cell titer blue reagent was added to each well and the plate was incubated for additional 2 h for the development of florescence. Florescence was measured at 540Ex/590Em on SpectraMax i3 Multi-Mode Microplate Reader (Molecular Devices, LLC; San Jose, CA, USA). […]

[4] = system: NB4; assay: CellTiter-Blue cell viability assay, NB4; assay type: cell-based, human; conditions: 48 h, mean of triplicates
Experimental: as §3, §4

[5] = Stability in human liver microsomes; assay type: in vitro ADME
Experimental: The clearance of compound (Id) in mouse or human liver microsomes was determined at 37° C. Both mouse and human liver microsomes were obtained from Merck KGaA, (Darmstadt, Germany), Cat. No. M9441 (Mouse liver microsomes) and M0317 (Human liver microsomes). Assays were conducted in triplicate in 96-deep well polypropylene plates. […] At five time points, reaction mixture aliquots were transferred to 96-shallow well stop plates on ice containing acetonitrile with 0.1 μM propafenone. […] Standard curves for test compounds were generated using 5 concentrations in triplicate that were processed as above but with zero incubation time. Stop plates were centrifuged at 2000 g for 10 min and then supernatant aliquots were transferred to a Waters Aquity® UPLC 700 μL 96-well sample plate with cap mat (Waters, Milford, MA). The amount of compound remaining in the supernatant was quantified by LC/MS/MS using a Waters Xevo TQ MS (electrospray positive mode) coupled to a Waters Aquity® UPLC (BEH column, C18). Propafenone was used as the internal standard. GraphPad® Prism v 5.04 was used for nonlinear fitting of time course data to generate t1/2 values.

[6] = Stability in mouse plasma; assay type: in vitro ADME; conditions: for Mouse Plasma Stability t1/2: 1 μM, 37° C.
Experimental: Stability in mouse plasma was tested as follows. The assay was conducted at 37° C. in triplicate. Test compound or procaine (positive control) was tested at a final concentration of 1 μM in either 2.5% DMSO/CD-1 mouse plasma (Innovative Research, Novi, MI; sodium heparin added as anticoagulant; pH adjusted to 7.4 with 2N HCl on day of use) or 2.5% DMSO/PBS (pH 7.4:136.9 mM NaCl, 2.68 mM KCl, 8.1 mM Na2HPO4, 1.47 mM KH2PO4, 0.9 mM CaCl2, 0.49 mM MgCl2). At seven time points, reaction mixture aliquots were transferred to 96-shallow well stop plates on ice containing acetonitrile with 0.1 μM propafenone. Samples were analyzed by LC/MS/MS on a Waters Xevo TQ instrument as described above using positive electrospray ionization. Assay acceptance criteria was 20% for all standards and 25% for the LLOQ. GraphPad® Prism v. 5.04 was used for nonlinear fitting of data to generate t1/2 values.

[7] = human liver microsomes, in presence of NADPH, 37° C.

Row | SMILES | IC50 [1] [nM] | IC50 ([2]; 48 h) [nM] | IC50 [3] [nM] | IC50 [4] [nM] | Mic. Ctrl. Human % @60 min [5] [%] | Stability HLM t1/2 [5, 7] [min] | Mouse Plasma Stability t1/2 [6] [min] | IC50 ([1]; Homo sapiens, DLD-1) [nM] | IC50 ([2]; Homo sapiens, HT-29, 48 h) [nM] | IC50 ([3]; Homo sapiens, K562) [nM] | IC50 ([4]; Homo sapiens, NB-4) [nM] | half-life ([5]; human, liver microsomes, human liver microsomes, in presence of NADPH, 37° C., read-out: Stability HLM t1/2) [min] | Mic. Ctrl. Human % @60 min ([5]; without NADPH, percent remaining after 60 min incubation) [%] | Mic. Ctrl. Human % @60 min ([5]; without NADPH, percent remaining after 60 min incubation, listed as compound (Id)) | half-life at 1 μM ([6]; CD-1, mouse, plasma, pH 7.4, 37° C., read-out: Mouse Plasma Stability t1/2) [min]
1 | COc1ccc(/C=C2\N=C(C)N(c3ccc(CC(=O)NCc4ccccc4)cc3)C2=O)cc1 [KIM-161, reference compound] | 1730 | 1840 | 282 | 148 | 113 | 22.9 | >300 | – | – | – | – | – | – | – | –
2 | CC1=N/C(=C\c2ccc(C)o2)C(=O)N1c1ccc(CC(=O)NCc2ccccc2)cc1 [Compound (Id), 2-Methyl-4-(5-methyl-2-furyl)methylene-1-[4-(benzylaminocarbonylmethyl)phenyl]-5-oxo-1H-imidazole] | – | 1340 | – | – | – | 30.3 | >300 | 1350 | 1340 | 437 | 189 | 30 | 118 | did not change | > 300
